Results on 78 molecules are retold here after the METLIN SMRT retention time set (Domingo-Almenara et al. 2019).

A short description of this series: gradient 5% acetonitrile 3 min, to 50% in 2 min, to 85% in 15 min, held 3 min, 100 µL/min. Conditions: column: Zorbax Extend-C18 2.1 x 50 mm; eluents: water / acetonitrile, 0.1% formic acid. A digest of the protocol:
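The system's dead and dwell volumes were 40 μL and 900 μL, with a Zorbax Extend-C18 column (2.1 × 50 mm, 1.8 μm) run at 100 μL/min in water and acetonitrile containing 0.1% formic acid each. Pure standards were analyzed in mixtures of ~100 molecules by HPLC–quadrupole time-of-flight mass spectrometry in positive and negative ionization mode. Retention time was assigned from computationally picked, manually inspected adduct peaks.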
Take `Cc1c(C(=O)C(=O)Nc2ccccc2C(N)=O)c2ccccc2n1C`: the RP-LC retention time came out at 796 s.

In turn, `CSc1ccccc1NC(=O)c1nnn(-c2cc(Cl)ccc2C)c1C` showed an RP-LC retention time of 1180 s.

In turn, `O=C(Nc1cccc(OCc2nnc(-c3ccccc3)o2)c1)c1cncc(Br)c1` returned an RP-LC retention time of 912 s.

`O=C(Nc1ccc2c(c1)N(C(=O)C1CCCO1)CC2)c1c(F)cccc1Cl` (stereo not drawn) registered an RP-LC retention time of 731 s.

For the molecule `COc1ccc(C)cc1NC(=O)CNC(=O)c1ccc(=O)[nH]c1`, the RP-LC retention time is 588 s.

On to `Cc1ccc(Sc2nccnc2N2CCC(C(=O)N3CCOCC3)CC2)cc1`, for which the RP-LC retention time came out at 881 s.

In turn, `O=C(c1ccccn1)N1CCCCC1c1nncn1CC1CC1` (stereo not drawn) showed an RP-LC retention time of 608 s.

`Cc1ccccc1-n1c(Cn2cnc3c(N)ncnc32)nc2cccc(C)c2c1=O`: the RP-LC retention time was found to be 719 s.

Consider `O=C1CCc2cc(S(=O)(=O)NCc3ccccc3Cl)cc3c2N1CCC3`, for which the RP-LC retention time was found to be 863 s.

Molecule `O=C(NCCSCc1ccco1)c1cc(-c2ccccn2)nc2ccccc12` returned an RP-LC retention time of 885 s.

Take `O=C(N[C@H]1C[C@@H]2C[C@H]1N(C(=O)c1ccco1)C2)c1ccccc1`: the RP-LC retention time is 671 s.

`COc1cccc(-n2c(=O)c(C(=O)Nc3ccc(F)cc3Cl)c(O)c3cccnc32)c1`: the RP-LC retention time amounted to 1290 s.

`O=C(Nc1ccc(OC(F)(F)F)cc1)C1CCCN(c2ccc(=O)n(-c3cccc(Cl)c3)n2)C1` (stereo not drawn) showed an RP-LC retention time of 1090 s.

In turn, `COc1cccc(OC)c1CN1CC[C@@H]2CN(S(C)(=O)=O)[C@@H]2C1` registered an RP-LC retention time of 594 s.

As to `CCN(CC)C(=O)C1CCCN(c2ncnc3c2cnn3-c2ccccc2)C1` (stereo not drawn), the RP-LC retention time was determined as 881 s.

`Cc1cccc(CNC(=O)CCC2CCN(S(=O)(=O)c3ccccc3C)CC2)c1` registered an RP-LC retention time of 982 s.

`O=C(CN1C(=O)NC2(CCCCC2)C1=O)Nc1ccc2c(c1)OCO2` returned an RP-LC retention time of 709 s.

Molecule `COc1ccc(C(=O)Nc2nc3c(s2)CCc2cc(OC)ccc2-3)cc1` returned an RP-LC retention time of 1080 s.

`Nc1ccc(SCc2nnc(-c3cccc(F)c3)o2)cc1` displayed an RP-LC retention time of 784 s.

As to `CCOC(=O)c1[nH]c(C)c(CCC(=O)N2CCC(C(=O)NCCC3=CCCCC3)CC2)c1C`, the RP-LC retention time was determined as 864 s.

The molecule `O=C1CC(c2noc(CCc3ccccc3)n2)CN1c1ccc(F)c(Cl)c1` (stereo not drawn) came in with an RP-LC retention time of 1050 s.

In turn, `COc1ccc(-c2nc3sc(C(N)=O)c(C)n3c2NC(C)(C)C)cc1` displayed an RP-LC retention time of 705 s.

`Cc1nc(-c2cnccn2)nc2c1CCC(=O)N2Cc1cccc(F)c1` returned an RP-LC retention time of 733 s.

`Cc1ccc(NC(=O)Nc2nc(C(=O)Nc3ccc4c(c3)OCO4)cs2)cc1` had an RP-LC retention time of 852 s.

The molecule `COc1ccc(-c2nnc(COc3ccc(NC(=O)C4CCC4)cc3)o2)cc1` returned an RP-LC retention time of 826 s.

In turn, `O=C(Cc1nnc(-c2cccc(Br)c2)o1)NCc1ccc(F)cc1Cl` showed an RP-LC retention time of 869 s.

In the case of `COC(=O)c1cc2ccsc2n1Cc1cccc(C#N)c1`, the RP-LC retention time came out at 1010 s.

As for `Cc1cccc(N2CCN(Cc3nc(-c4ccc(N5CCC(C)CC5)nc4)no3)CC2)c1C`, the RP-LC retention time came to 1280 s.

On to `O=C(Cn1cnc(-c2ccc(Cl)cc2)cc1=O)NCc1ccccc1OC(F)(F)F`, for which the RP-LC retention time was found to be 910 s.

For `CN1CCN(c2ncc3c(n2)CC(c2ccc(Cl)cc2)CC3=O)CC1` (stereo not drawn), the RP-LC retention time stood at 674 s.

The molecule `CCOc1nccnc1NC1CCN(C(=O)c2ccco2)CC1` came in with an RP-LC retention time of 585 s.

In turn, `COCc1nnc(NC(=O)C2CC(=O)N(CCc3c[nH]c4ccc(Cl)cc34)C2)s1` (stereo not drawn) had an RP-LC retention time of 724 s.

`Cc1c(Cl)cccc1N1C(=O)CN(S(C)(=O)=O)CC1(C)C(=O)NCc1ccc(F)cc1` (stereo not drawn): the RP-LC retention time was 814 s.

With `O=C(Cn1cc(-c2nc(-c3ccc(Cl)cc3)no2)ccc1=O)NC1CCCCC1`, the RP-LC retention time is 1030 s.

Turning to `O=C1CC(/C=C/c2ccccc2)Cc2nc(N3CCN(c4ccccn4)CC3)ncc21` (stereo not drawn), the RP-LC retention time was determined as 754 s.

The molecule `O=C(Cn1nc(N2CCSCC2)c2ccccc2c1=O)Nc1cccc(C(F)(F)F)c1` registered an RP-LC retention time of 1030 s.

On to `Cc1ccc2[nH]cc(CCN3CC(C(=O)Nc4ccccc4)CC3=O)c2c1` (stereo not drawn), for which the RP-LC retention time stood at 801 s.

Consider `CCN1CCCn2cc(S(=O)(=O)Nc3ccc(F)c(Cl)c3)cc2C1=O`, for which the RP-LC retention time came out at 738 s.

`CSc1nnc(-c2nn(C)c3c2CN(C(=O)c2ccc(F)c(F)c2)CC3)n1C` had an RP-LC retention time of 720 s.

As to `CCC1Oc2ccc(S(=O)(=O)N3CCC(C(=O)NCc4cccs4)CC3)cc2NC1=O` (stereo not drawn), the RP-LC retention time was determined as 807 s.

On to `O=C(CSc1ncc(-c2cccc(Cl)c2)o1)Nc1ccccc1C(F)(F)F`, for which the RP-LC retention time worked out at 1070 s.

As for `CCCN(C)c1nccn2c(=O)n(CC(=O)Nc3ccc(F)cc3)nc12`, the RP-LC retention time was 806 s.

In turn, `CCCN1C(=O)c2cc(S(=O)(=O)Nc3ccc(C)c(F)c3)ccc2Oc2cccnc21` gave an RP-LC retention time of 1120 s.

On to `O=C(Cn1cnc2c(sc3nc(-c4ccccc4)ccc32)c1=O)Nc1ccc(F)c(F)c1`, for which the RP-LC retention time was determined as 1040 s.

`CC(C)Oc1ccc(CN2CCC(C)(c3noc(C4CCOCC4)n3)CC2)cc1` registered an RP-LC retention time of 705 s.

`CC1=C(c2ccccc2)S(=O)(=O)N=C1N1CCC(NC(=O)CCC(C)C)CC1` returned an RP-LC retention time of 857 s.

Take `Cn1nc(-c2nnc(-c3ccccc3Cl)o2)c2c1CCN(C(=O)COc1ccccc1)C2`: the RP-LC retention time was 864 s.

The molecule `c1cnc(N2CCN(c3nc4ccccc4s3)CC2)nc1` came in with an RP-LC retention time of 809 s.

`O=C(CC1CCCN(c2cn[nH]c(=O)c2)C1)Nc1ccc2c(c1)OCCO2` (stereo not drawn) gave an RP-LC retention time of 639 s.

On to `Cc1ccnc(NC(=O)NCCCSc2nccc(C)n2)n1`, for which the RP-LC retention time amounted to 643 s.

Molecule `COc1ccc(-c2c(C)noc2NC(C)=O)cc1S(=O)(=O)Nc1ccc(S(N)(=O)=O)cc1` displayed an RP-LC retention time of 636 s.

As to `CCCN(CCC)S(=O)(=O)c1cc(-c2nnc(C)o2)co1`, the RP-LC retention time turned out to be 897 s.

Molecule `Cc1noc(-c2ccc(S(=O)(=O)N3CCN(c4ccccn4)CC3)s2)c1C` yielded an RP-LC retention time of 730 s.

For the molecule `CNCC[C@H](Oc1cccc2ccccc12)c1cccs1`, the RP-LC retention time stood at 788 s.

`O=C(Nc1ccccc1F)N1CC2CN(S(=O)(=O)c3ccc(F)cc3)CC(C1)O2` gave an RP-LC retention time of 758 s.

`O=C(c1ccco1)N1CCN(C(=O)c2cccn2CC(=O)N2CCc3ccccc32)CC1` gave an RP-LC retention time of 711 s.

The molecule `CCN(CC)S(=O)(=O)c1ccc(Cl)c(-c2nnc(-c3cccc(C)c3)o2)c1` displayed an RP-LC retention time of 1170 s.

In turn, `Cc1cc2c(c(=O)n(-c3ccccc3)c(=O)n2CC(=O)Nc2ccc(C(C)C)cc2)n1C` had an RP-LC retention time of 975 s.

`COc1ccc(-c2c(C)noc2NC(C)=O)cc1S(=O)(=O)Nc1ccccc1` gave an RP-LC retention time of 721 s.

In turn, `CCCCNC(=O)c1cc(NS(=O)(=O)c2c(C)cc(C)cc2C)cnc1N1CCNCC1` came in with an RP-LC retention time of 661 s.

`CCn1c(=O)c(N2CCCC(C(=O)NCCc3c[nH]c4ccc(C)cc34)C2)nc2ccccc21` (stereo not drawn) showed an RP-LC retention time of 1030 s.

Consider `Nc1ccccc1SC1CC(=O)N(c2ccccc2Cl)C1=O` (stereo not drawn), for which the RP-LC retention time was determined as 884 s.

Molecule `CCC(=O)N1CCc2cc(C(=O)NCc3ccc(C)o3)ccc21` had an RP-LC retention time of 757 s.

`O=C1/C(=C/c2ccc([N+](=O)[O-])cc2)CCc2ccccc21` gave an RP-LC retention time of 1160 s.

For `COc1ccc(NC(=O)c2nc(C3CCC3)oc2C)cc1C(F)(F)F`, the RP-LC retention time amounted to 1170 s.

`CCOc1nc2ccccc2nc1N1CCCC(C(=O)N2CCN(c3ccc(OC)cc3)CC2)C1` (stereo not drawn) had an RP-LC retention time of 1190 s.

Turning to `COc1ccc(N2CCN(c3ncc(S(=O)(=O)c4ccc(C)cc4)c(N)n3)CC2)cc1`, the RP-LC retention time was 919 s.

Turning to `Cc1ccc(NC(=O)NC2CCN(c3ccccc3)C2=O)cc1Cl` (stereo not drawn), the RP-LC retention time amounted to 915 s.

In turn, `CCOC(=O)N1CCN(C(=O)Cc2c(C)nn(-c3nc(-c4ccccc4)cs3)c2C)CC1` gave an RP-LC retention time of 998 s.

For the molecule `Cn1cc(-c2ccccc2)cc1C(=O)NCCCN1CCOCC1`, the RP-LC retention time was determined as 636 s.

`CNC(=O)N1CCCC1c1nc(C2CN(C(=O)c3cccn3C)C2)no1` (stereo not drawn) yielded an RP-LC retention time of 629 s.

The molecule `CCOC(=O)c1c(C)[nH]c(C(=O)N2CCCC(C(=O)NCc3ccc(C)o3)C2)c1C` (stereo not drawn) came in with an RP-LC retention time of 790 s.

Molecule `CCCn1cc(C2=CCN(S(=O)(=O)c3cccc(Cl)c3)CC2)c2cccnc21` came in with an RP-LC retention time of 1110 s.

`CCOc1cc(C(=O)NC2CCN(c3cc(-c4ccc(F)cc4)[nH]n3)C2)cc(OCC)c1OCC` (stereo not drawn) gave an RP-LC retention time of 858 s.

`Cc1nc([C@H]2CCN(Cc3cc(Cl)ccc3F)C[C@H]2N(C)C)n[nH]1` displayed an RP-LC retention time of 567 s.

Molecule `COc1ccc(NC(=O)C2CCCN(c3nc4ccccc4nc3C(F)(F)F)C2)cc1OC` (stereo not drawn) had an RP-LC retention time of 1060 s.

In the case of `COc1ccc(Cl)cc1NS(=O)(=O)c1c[nH]c2ncccc12`, the RP-LC retention time is 763 s.

Consider `CCc1ccc(CNc2nc3ccncc3n(CC)c2=O)cc1`, for which the RP-LC retention time is 701 s.
